In US11827624B2, “Covalent immune recruiter compounds for immune cell recognition and associated uses” (McMaster University, priority 2020, dated 2023):

Test system: PSMA+HEK cells
Assay: Luminescence ADCC reporter (CD16α activation) assay with mmAb
Format: cell-based, human
Details: antibody 10^−7-10^−9 M
Procedure: Covalent vs. non-covalent antibody recruitment were compared in functional immune assays. Activation of NK cell CD16α immune receptors was assessed via luminescence based ADCC assays. ADCC was quantified using the ADCC Reportor Bioassay kit (Promega G7010). All ADCC induced luminescence was measured on a SpectraMax i3 plate reader (Molecular Devices). The human IgG isotype control used was purchased from Jackson ImmunoResearch (009-000-003). The human IgG1 monoclonal anti-DNP antibody (mAb) was purchased from Acrobiosystems (DNP-M2). Human IgG from serum was purchased from Innovative Research ([…]1000MG). Anti-DNP depleted serum was made from human IgG from serum (Innovative Research). For PSMA competition controls, 2-PMPA was purchased from Sigma (SML1612). Hek-293T (PSMA+/−) cell lines were generously given by Dr. Cyril Barinka (Institute of Biotechnology CAS, Czech Republic). Ultra low IgG FBS was purchased from Fischer Scientific (A3381901). RPMI-1640 was purchased as a powder from Fischer Scientific (31800089) and resuspended. DMEM was purchased as a powder from Fischer Scientific (12800082) and resuspended. Pen/Strep was purchased from Fischer Scientific (15140-122). FBS was purchased from Fischer Scientific (12484-028). Zeocin was purchased from Fischer Scientific (R25001). HEK-PSMA cells were cultured in DMEM media with 2 mM L-glut, 1% Pen/Strep, 10% FBS, 50 ug/mL Zeocin. HEK cells were cultured in DMEM media with 2 mM L-glut, 1% Pen/Strep, 10% FBS.
Preparation of antibody-CIR/ARM stocks were mixed overnight prior to addition to the ADCC plate. In the case of mmAb and mAb, incubation was carried out at 600 nM antibody and 1.2 μM CIR or ARM. In the case of IgG from serum, incubation was completed at 230 μM antibody and 8.7 μM CIR or ARM. In all cases, DMSO was kept close to 1%. After the overnight incubation, a dilution series was completed on the antibody-CIR/ARM stocks in RPMI (1% DMSO). […] 75 μL of Bio-Glo Luciferase Assay Reagent was added to each well, and luminescence was quantified using the SpectraMax i3 plate reader. […]

With `O=C(O)CC[C@H](NC(=O)N[C@@H](CCCCNC(=O)NCCOCCOCCOCCOCCOCCOCCOCCOC(=O)n1cnc(CCNC(=O)CNc2ccc([N+](=O)[O-])cc2[N+](=O)[O-])c1)C(=O)O)C(=O)O` [CIR 3] the “CD16α based target immune recognition” value was “robust target immune recognition”.
